Experimental data published in patent publication US20070161645A1, “Thiazole inhibitors targeting resistant kinase mutations” (TargeGen, Inc., priority 2005, published 2007).
pIC50: −log10 of the molar value. Where a name gives a salt, the structure may show the parent alone. Read-outs that look alike come from different tables or passages of the source.

How the values were obtained:
Abl kinase = biological target: T1, Abl kinase (Homo sapiens, UniProt P00519); test: Abl Kinase Assay (KinaseGlo luminescent detection of residual ATP); format: biochemical
T1 construct: purchased Invitrogen

Abl (T315I) = biological target: T2, Abl (T315I) (Homo sapiens, UniProt P00519, T315I); test: Abl (T315I) Kinase Assay (KinaseGlo luminescent detection of residual ATP); format: biochemical
T2 construct: purchased Upstate
Method: The assay was performed similarly to the Abl kinase assay. Abl (T3151) (Upstate, 17 ng/well); Abltide substrate (100 μM) and ATP (5 nM) comprised the reaction mixture. Compound was similarly diluted, and the reaction plate was incubated for 60 minutes at 37° C. IC50's were calculated as for the Abl kinase assay using GraphPad Prism4.

[1] = Abl kinase 20 ng/well, Abltide 100 μM, ATP 500 nM, 60 minutes at 37° C., read-out: Abl IC50
[2] = Abl (T315I) 17 ng/well, Abltide 100 μM, ATP 5 nM, 60 minutes at 37° C., read-out: Abl (T315I) IC50

pIC50 (Abl kinase; [1])	pIC50 (Abl (T315I); [2])	pIC50 (Abl kinase)	pIC50 (Abl (T315I))	Compound
7.54	6.57	–	–	Cc1nc(Nc2ncc(/C=C\c3cccc(O)c3)s2)cc(N2CCC(O)CC2)n1 [Compound VII, cis-1-(6-{5-[2-(3-Hydroxy-phenyl)-vinyl]-thiazol-2-ylamino}-2-methyl-pyrimidin-4-yl)-piperidin-4-ol]
–	–	6.65	6.22	COc1cccc(/C=C/c2cnc(Nc3cc(N4CCNCC4)nc(C)n3)s2)c1 [Compound XXI, (E)-5-(3-Methoxystyryl)-N-(2-methyl-6-(piperazin-1-yl)pyrimidin-4-yl)thiazol-2-amine hydrochloride]
7.80	6.46	–	–	Cc1nc(Nc2ncc(/C=C/c3ccc4[nH]ncc4c3)s2)cc(N2CCNCC2)n1 [Compound XXIV, {5-[2-(1H-Indazol-5-yl)-vinyl]-thiazol-2-yl}-(2-methyl-6-piperazin-1-yl-pyrimidin-4-yl)-amine]
7.27	6.46	–	–	Cc1nc(Nc2ncc(/C=C/c3ccc4[nH]ccc4c3)s2)cc(N2CCNCC2)n1 [Compound XV, {5-[2-(1H-Indol-5-yl)-vinyl]-thiazol-2-yl}-(2-methyl-6-piperazin-1-yl-pyrimidin-4-yl)-amine]
–	–	7.82	6.81	Oc1cccc(/C=C/c2cnc(Nc3ccc(N4CCNCC4)cc3)s2)c1 [Compound IX, 3-((E)-2-(2-(4-(Piperazin-1-yl)phenylamino)thiazol-5-yl)vinyl)phenol]
7.70	6.48	–	–	Cc1nc(Nc2ncc(/C=C/c3cccc4[nH]ncc34)s2)cc(N2CCNCC2)n1 [Compound XVI, {5-[2-(1H-Indazol-4-yl)-vinyl]-thiazol-2-yl}-(2-methyl-6-piperazin-1-yl-pyrimidin-4-yl)-amine]
–	–	6.79	6.57	Oc1ccc(/C=C/c2cnc(Nc3cccc(OCCN4CCCC4)c3)s2)cc1 [Compound XXII, 4-(2-{2-[3-(2-Pyrrolidin-1-yl-ethoxy)-phenylamino]-thiazol-5-yl}-vinyl)-phenol]
7.62	7.29	–	–	Oc1ccc(/C=C/c2cnc(Nc3cccc(N4CCNCC4)c3)s2)cc1 [Compound XIV, 4-{2-[2-(3-Piperazin-1-yl-phenylamino)-thiazol-5-yl]-vinyl}-phenol]
–	–	6.89	5.58	O=S(=O)(c1cccc(Nc2ncc(/C=C/c3cccc(O)c3)s2)c1)N1CCNCC1 [Compound VI, 3-(-{2-[3-(Piperazine-1-sulfonyl)-phenylamino]-thiazol-5yl}-vinyl)-phenol]
6.51	5.15	–	–	O=C(Nc1ccc(/C=C/c2cnc(Nc3cccc(N4CCNCC4)c3)s2)cc1)c1cccc(C(F)(F)F)c1 [Compound XXIII, N-(4-{2-[2-(3-Piperazin-1-yl-phenylamino)-thiazol-5-yl]-vinyl}-phenyl)-3-trifluoromethyl-benzamide]
–	–	6.67	6.58	O=S(=O)(c1ccc(Nc2ncc(/C=C/c3ccc(O)cc3)s2)cc1)C1CCNCC1
–	–	6.41	6.08	CN(CCN1CCCC1)S(=O)(=O)c1cccc(Nc2ncc(/C=C/c3ccc(O)cc3)s2)c1 [Compound II, 3-{5-[2-(4-Hydroxy-phenyl)-vinyl]-thiazol-2-ylaminol}-N-methyl-N-(2-pyrrolidin-1-yl-ethyl)-benzenesulfonamide, Hydrochloride]
7.59	7.18	–	–	Cc1nc(Nc2ncc(/C=C/c3ccc(O)cc3)s2)cc(N2CCN(CCO)CC2)n1 [Compound III, 4-[2-(2-{6-[4-(2-Hydroxy-ethyl)-piperazin-1-yl]-2-methyl-pyrimidin-4-yl-amino}-thiazol-5-yl)-vinyl]-phenol]
–	–	7.85	6.42	Oc1cccc(/C=C/c2cnc(Nc3cccc(N4CCNCC4)c3)s2)c1 [Compound X, 3-((E)-2-(2-(3-(Piperazin-1-yl)phenylamino)thiazol-5-yl)vinyl)phenol]
–	–	6.76	5.96	OCCN1CCN(c2cccc(Nc3ncc(/C=C/c4ccc5[nH]ccc5c4)s3)c2)CC1 [Compound V, 2-(4-(3-(5-((E)-2-(1H-indol-5-yl)vinyl)thiazol-2-ylamino)phenyl)piperazin-1-yl)ethanol]
7.15	7.30	–	–	Cc1nc(Nc2ncc(/C=C/c3ccc(Cl)c4[nH]ccc34)s2)cc(N2CCNCC2)n1 [4-{5-[2-(3-Hydroxy-phenyl)-vinyl]-pyrimidine-2-ylamino}-N-piperdin-4-yl-benzenesulfonamide]
8.57	7.51	–	–	Cc1nc(Nc2ncc(/C=C/c3cccc(O)c3)s2)cc(N2CCCNCC2)n1 [Compound XVIII, 3-{2-[2-(6-[1,4]Diazepan-1-yl-2-methyl-pyrimidin-4-ylamino)-thiazol-5-yl]-vinyl}-phenol]
–	–	8.82	7.74	Cc1nc(Nc2ncc(/C=C/c3cccc(O)c3)s2)cc(N2CCNCC2)n1 [Compound XX, (E)-3-(2-(2-(2-Methyl-6-(piperazin-1-yl)pyrimidin-4-ylamino)thiazol-5-yl)vinyl)phenol hydrochloride]
6.86	6.36	–	–	O=S(=O)(c1ccc(Nc2ncc(/C=C/c3cccc(O)c3)s2)cc1)N1CCNCC1 [Compound XI, 3-(-{2-[4-(Piperazine-1-sulfonyl)-phenylamino]-thiazol-5yl}-vinyl)-phenol]
–	–	7.80	6.95	Cc1nc(Nc2ncc(/C=C/c3ccc4nc(N)sc4c3)s2)cc(N2CCNCC2)n1 [Compound XIX, 6-[(E)-2-{2-[(2-Methyl-6-piperazin-1-ylpyrimidin-4-yl)amino]-1,3-thiazol-5-yl}vinyl]-1,3-benzothiazol-2-amine]
8.36	7.46	–	–	Oc1cccc(/C=C/c2cnc(Nc3cc(N4CCNCC4)ncn3)s2)c1 [Compound XVII, 3-{2-[2-(6-Piperazin-1-yl-pyrimidin-4-ylamino)-thiazol-5-yl]-vinyl}-phenol]
7.62	6.68	–	–	Cc1nc(Nc2ncc(/C=C/c3cccc(O)c3)s2)cc(N2CCC(O)CC2)n1 [Compound VIII, trans-1-(6-{5-[2-(3-Hydroxy-phenyl)-vinyl]-thiazol-2-ylamino}-2-methyl-pyrimidin-4-yl)-piperidin-4-ol]
6.05	–	–	–	O=S(=O)(NCCN1CCCC1)c1ccc(Nc2ncc(C=Cc3cc(O)ccc3Cl)s2)cc1 [Compound IV, 4-{5-[2-(2-Chloro-5-hydroxy-phenyl)-vinyl]-thiazol-2-ylamino}-N-(2-pyrrolidin-1-yl-ethyl)-benzenesulfonamide]
